Test results reported in patent US8388966B2, “Combination treatment of pancreatic cancer” (Cancer Advances, Inc., priority 2001, dated 2013).
Structures can show the parent of a compound that is named as a salt.

Legend:
[1] = in vivo; cited from earlier work
[2] = system: gastrin-sensitive mouse colon tumor, MC26; details: xenograft mice bearing MC26; 25 days in control animals; cited from earlier work
pancreatic tumor = assay: In vivo pancreatic tumor weight
Method: This second part of the example depicts cell proliferation of human pancreatic cell lines, PANC-1, BxPC3 and PAN-1 using a tetrazolium-based combined with anti-gastrin G17 antibodies induced by G17DT (10-500 μg/ml). The G17DT elicited antibodies are active against both serum-associated and tumor-secreted, proliferative forms of gastrin. The PAN-1 cell were administered at clinically reflective doses.
In vivo G17DT alone inhibited basal pancreatic tumor weight by 33% (p=0.016, ANOVA) compared to 38% for Gemcitabine (p=0.004, ANOVA). When combined the agents inhibited tumor weight by 55% which was significant from G17DT alone (p=0.025). Thus the immunological agent G17DT may promote the therapeutic efficacy of Gemcitabine.

[3] = after IV administration; cited from earlier work
[4] = in vivo; cited from earlier work; remark: listed apart in the source
AR42J cells = details: 1 nM CI-988; gastrin 1 nM; after 96 hours of treatment; cited from earlier work
[5] = system: hormone-refractory prostate cancer; details: 75 mg/m^2 every 21 days, cited from earlier work

Structure (SMILES): CCc1c2c(nc3ccc(OC(=O)N4CCC(N5CCCCC5)CC4)cc13)-c1cc3c(c(=O)n1C2)COC(=O)[C@]3(O)CC [Irinotecan, (S)-4,1-diethyl-3,4,12,14-tetrahydro-4-hydroxy-3,14-dioxi-[H-pyrano[3′,4′:67]-indolizino[1,2-b]quinolin-9-yl-[1,4′-bipiperidine]-1′-carboxylate, monohydrochloride, trihydrate]
- G1 adverse effects [1]: early and late diarrhea
- adverse effects in addition to the G1 manifestations [1]: myelosuppresion and hypersensitivity reactions

Structure (SMILES): CCCN(CCC)C(=O)C(CCC(=O)O)NC(=O)c1ccccc1 (stereo not drawn) [proglumide]
- survival [2]: 39 days

Structure (SMILES): Nc1ccn([C@@H]2O[C@H](CO)[C@@H](O)C2(F)F)c(=O)n1 [Gemcitabine, 2′, 2′, difluorodeoxycytidine]
- inhibition of basal pancreatic tumor weight (pancreatic tumor): 38%
- excreted unchanged as gemcitabine [3]: 5%
- cumulative toxicity [4]: no evidence of cumulative toxicity
- overall toxicity [4]: moderate

Structure (SMILES): C[C@](Cc1c[nH]c2ccccc12)(NC(=O)OC1[C@H]2C[C@@H]3C[C@@H](C[C@H]1C3)C2)C(=O)NC[C@H](NC(=O)CCC(=O)O)c1ccccc1 (stereo partly drawn) [CI-988]
- inhibition of proliferation of gastrin-stimulated AR42J cells (AR42J cells): about 47%

Structure (SMILES): CC(=O)O[C@@]12CO[C@@H]1C[C@H](O)[C@@]1(C)C(=O)[C@H](O)C3=C(C)[C@@H](OC(=O)[C@H](O)[C@@H](NC(=O)OC(C)(C)C)c4ccccc4)C[C@@](O)([C@@H](OC(=O)c4ccccc4)[C@H]21)C3(C)C [docetaxel]
- median overall survival [5]: 27 months
- patients with response (more than 40% PSA decline and more than 50% reduction of bi-dimensional cross-products) ([5]; including one complete response): 17 of the 35
- median duration of responses ([5]; range 2 to 24 months): nine
- toxicity ([5]; two deaths during the study): remained tolerable throughout the treatment
